# Source: ChEMBL document CHEMBL4680150, “Design, synthesis and biological evaluation of vincamine derivatives as potential pancreatic β-cells protective agents for the treatment of type 2 diabetes mellitus” (Eur J Med Chem, 2020)
# Calls of active or inactive are those of the source. Unless noted, the rule behind the calls is not given here.
# Key:
# [1] = system: INS1(832/13); experiment: Cytoprotective activity against STZ-induced toxicity in rat INS-1 832/13 cells at 20 uM incubated for 24 hrs by MTT assay; format: functional, cell-based
# [2] = system: INS1(832/13); experiment: Cytoprotective activity in rat INS-1 832/13 cells assessed as inhibition of STZ-induced apoptosis at 20 uM incubated for 24 hrs by MTT assay relative to control; format: functional; parameters: scale not given: the % may be the effect or the level left
# [3] = system: INS1(832/13); experiment: Cytoprotective activity in rat INS-1 832/13 cells assessed as inhibition of STZ-induced apoptosis incubated for 24 hrs by MTT assay; format: functional, cell-based; details: INS-1 832/13, 24 h
# [4] = system: INS-1 832/13; experiment: Activation of AKT in STZ-induced rat INS-1 832/13 cells assessed as increase in Akt phosphorylation at 20 uM after 24 hrs by AlphaLISA assay; details: filed as activator
# [5] = system: INS1(832/13); experiment: Cytoprotective activity in rat INS-1 832/13 cells assessed as inhibition of STZ-induced apoptosis at 20 uM incubated for 24 hrs in presence of wortmannin by MTT assay; format: functional, cell-based
# [6] = system: INS-1 832/13; experiment: Activation of AKT in STZ-induced rat INS-1 832/13 cells assessed as increase in Akt phosphorylation at 20 uM after 24 hrs in presence of wortmannin by Western blot analysis
# [7] = system: INS1(832/13); experiment: Cytoprotective activity against STZ-induced toxicity in rat INS-1 832/13 cells assessed as mass of apoptotic cells at 20 uM by Annexin V-FITC staining based flow cytometric analysis (reference value: 40.8%); format: functional
# [8] = system: INS-1 832/13; experiment: Activation of AKT in STZ-induced rat INS-1 832/13 cells assessed as increase in Akt phosphorylation at 20 uM after 24 hrs by Western blot analysis; details: filed as activator
# [9] = system: INS1(832/13); experiment: Cytoprotective activity against STZ-induced toxicity in rat INS-1 832/13 cells assessed as mass of apoptotic cells at 5 uM by Annexin V-FITC staining based flow cytometric analysis (reference value: 40.8%); format: functional
# [10] = system: INS-1 832/13; experiment: Activation of PI3K/Akt signalling pathway in STZ-induced rat INS-1 832/13 cells assessed as decrease in cleaved-caspase 3 protein expression at 5 to 20 uM after 24 hrs by Western blot analysis; details: filed as activator, dose 5-20 µM
# [11] = system: INS-1 832/13; experiment: Activation of AKT in STZ-induced rat INS-1 832/13 cells assessed as increase in Akt phosphorylation at 5 to 20 uM after 24 hrs by Western blot analysis; details: filed as activator, dose 5-20 µM
# [12] = system: INS-1 832/13; experiment: Activation of PI3K/Akt signalling pathway in STZ-induced rat INS-1 832/13 cells assessed as decrease in caspase 9 protein expression at 5 to 20 uM after 24 hrs by Western blot analysis; details: filed as activator, dose 5-20 µM
# [13] = system: INS1(832/13); experiment: Cytoprotective activity against STZ-induced toxicity in rat INS-1 832/13 cells at 10 uM incubated for 24 hrs by MTT assay; format: functional, cell-based
# [14] = system: INS-1 832/13; experiment: Activation of PI3K/Akt signalling pathway in STZ-induced rat INS-1 832/13 cells assessed as decrease in caspase 3 protein expression at 5 to 20 uM after 24 hrs by Western blot analysis; details: filed as activator, dose 5-20 µM
# [15] = system: INS1(832/13); experiment: Cytoprotective activity against STZ-induced toxicity in rat INS-1 832/13 cells assessed as mass of apoptotic cells at 10 uM by Annexin V-FITC staining based flow cytometric analysis (reference value: 40.8%); format: functional
# [16] = system: INS-1 832/13; experiment: Activation of PI3K/Akt signalling pathway in STZ-induced rat INS-1 832/13 cells assessed as increase in phosphorylation of FOX01 at Ser256 residue at 5 to 20 uM after 24 hrs by Western blot analysis; details: filed as activator, dose 5-20 µM
# [17] = system: INS-1 832/13; experiment: Activation of PI3K/Akt signalling pathway in STZ-induced rat INS-1 832/13 cells assessed as decrease in Bim mRNA expression at 5 to 20 uM after 24 hrs by RT-PCR analysis; details: filed as activator, dose 5-20 µM
# [18] = system: INS-1 832/13; experiment: Activation of AKT in STZ-induced rat INS-1 832/13 cells assessed as increase in Akt phosphorylation at 5 to 20 uM after 24 hrs by AlphaLISA assay; details: filed as activator, dose 5-20 µM
# [19] = system: INS-1 832/13; experiment: Activation of PI3K/Akt signalling pathway in STZ-induced rat INS-1 832/13 cells assessed as decrease in p21 mRNA expression at 5 to 20 uM after 24 hrs by RT-PCR analysis; details: filed as activator, dose 5-20 µM
# [20] = system: INS1(832/13); experiment: Cytoprotective activity against STZ-induced rat INS-1 832/13 cells assessed as increase in IRS2 protein expression at 5 to 20 uM after 24 hrs Western blot analysis; format: functional, cell-based; details: dose 5-20 µM
# [21] = system: INS-1 832/13; experiment: Activation of PI3K/Akt signalling pathway in STZ-induced rat INS-1 832/13 cells assessed as increase in phosphorylation of GSK3beta at Ser9 residue at 5 to 20 uM after 24 hrs by Western blot analysis; details: filed as activator, dose 5-20 µM
# [22] = system: INS1(832/13); experiment: Potency index, ratio of vincamine EC50 to test compound EC50 for cytoprotective activity in rat INS-1 832/13 cells assessed as inhibition of STZ-induced apoptosis; format: functional
# [23] = system: INS1(832/13); experiment: Cytoprotective activity against STZ-induced rat INS-1 832/13 cells assessed as increase in IRS2 mRNA expression at 5 to 20 uM after 24 hrs RT-PCR analysis; format: functional, cell-based; details: dose 5-20 µM
smiles,measurement,setting,value
CC[C@]12CCCN3CCc4c(n(c5ccccc45)[C@@](O)(C(=O)OC)C1)[C@@H]32 [VINCAMINE],Activity,[1],Active
same,Activity,[2],63%
same,EC50,[3],11 µM
same,Activity,[4],Active
same,Activity,[5],inactive
same,Activity,[6],inactive
same,Activity,[7],28.7%
same,Activity,[8],Active
CCNCC1=C[C@]2(CC)CCCN3CCc4c(n1c1ccccc41)[C@@H]32,Activity,[9],31.3%
same,Activity,[10],Active
same,Activity,[11],Active
same,Activity,[2],Active
same,Activity,[12],Active
same,Activity,[13],Active
same,Activity,[14],Active
same,EC50,[3],0.27 µM
same,Activity,[15],29.1%
same,Activity,[5],inactive
same,Activity,[16],Active
same,Activity,[17],Active
same,Activity,[18],Active
same,Activity,[6],inactive
same,Activity,[19],Active
same,Activity,[20],Active
same,Activity,[7],24.1%
same,Activity,[21],Active
same,Ratio EC50,[22],2
same,Activity,[23],Active
